The subject of assay [1] is Human normal articular chondrocytes. The assay can be described thus: Inhibitory activity against cell death of human articular chondrocytes induced by NO (MTT). The format is cell-based. The conditions noted are these: for Cell Death Inhibition Rate: 1.5 mM sodium nitroprusside 5 hours, mean ±SD. On the procedure: Human normal articular chondrocytes (Clonetics, Inc.) were proliferated in a growth medium for articular chondrocytes (CGM, Clonetics, Inc.) in monolayer culture. Then, the cells were suspended in 1.2% alginate-containing 155 mM NaCl solution in a density of 2.0×10^6 cells/ml, and beads having a 2 mm diameter were prepared using a syringe with a 22 gauge needle. The beads were incubated in a differentiation medium for articular chondrocytes (CDM, Clonetics, Inc.) charged in a 96-well round-bottomed plate (1 bead/well, manufactured by FALCON) for further 7 days. The medium was replaced by α-modified minimum essential medium containing Compound 1 (0.1 μM or 1 μM) and 10% fetal cow serum, followed by incubation for 48 hours and then for 5 hours in the co-presence of 1.5 mM sodium nitroprusside (NO generator, manufactured by Sigma). As control drugs, caspase 3 inhibitor (Z-DEVD-FMK (SEQ ID NO: 5), 100 μM, manufactured by R & D Systems, Inc.) and caspase 9 inhibitor (Z-LEHD-FMK (SEQ ID NO: 6), 100 μM, manufactured by R & D Systems, Inc.) were similarly monitored for their activities. After completion of the experiment, alginate was removed and the cell survival rate was determined by the MTT technique.
In the table, the numerical values indicate mean values (±SD) of the cell death inhibition rates as converted from the measurement data by the MTT technique. The cell survival rate after the addition of 1.5 mM sodium nitroprusside (without addition of either Compound 1 or control drug) was 31.9%.

Assay [2] has as its system primary cardiomyocytes derived from rat neonates. Briefly: Inhibition of serum depletion-induced myocardial cell death (WST-8 viable cell count). The format is cell-based. An excerpt: Neonates (within one day after birth) were obtained from pregnant Wistar rats purchased from Charles River Japan, Inc. and anesthetized with ether. After sterilization with 70% ethanol, the heart was removed with forceps. After washing with phosphate buffered saline (manufactured by Takara Co., Ltd., T900), the heart removed was minced with surgical scissors. The pieces of tissue were washed 4 or 5 times with phosphate buffered saline to remove most of non-cardiomyocytes derived from blood. To the pieces of tissue corresponding to 10 neonates, 5 ml of an enzyme solution [which is a solution of trypsin (1.25 mg) (manufactured by Difco) and collagenase (0.25 mg) (manufactured by Sigma) in phosphate buffer (1 ml)] was added. The mixture was stirred for 15 minutes with a stirrer while maintaining at 37° C. After 2.5 ml of the enzyme solution was replenished, the mixture was stirred for further 15 minutes, and this procedure was repeated twice. Subsequently, Medium 199 (manufactured by Gibco) containing 10% fetal cow serum (manufactured Biowicker, Inc.) was added to the mixture in a half volume of the enzyme solution to terminate the enzymatic reaction. After filtering through a cell strainer (manufactured by Falcon), the mixture was centrifuged at 400×g for 5 minutes to collect the cells.
The cells were then recovered, filtered through a cell strainer and centrifuged at 400×g for 5 minutes to collect primary cardiomyocytes derived from rat neonates.
Next, the primary cardiomyocytes derived from rat neonates (corresponding 10 neonates) were suspended in 2 ml of a hypotonic solution [solution obtained by dissolving NH4Cl (8.29 g), KHCO3 (1.0 g) and EDTA/2Na (ethylenediaminetetraacetic acid disodium; manufactured by Dojin Chemical Laboratory) (37 mg) in water (1 L)]. The suspension was allowed to stand for 3 minutes to disrupt erythrocytes. To the suspension 10 ml of Medium 199 containing 10% fetal cow serum was added, and the mixture was centrifuged at 400×g for 5 minutes to collect the primary cardiomyocytes derived from rat neonates. […] An aliquot of the cardiomyocytes suspension obtained was taken out and 0.3% trypan blue was added thereto. The mixture was gently stirred and the count of cardiomyocytes was counted with a hemocytometer.
Incubation was continued for further 4 days to induce cell death. […]
The mean value (±SD) in the minimum effective concentration of Compound 1 required for inhibiting the cell death was 0.015±0.011 μM. The concentration of Compound 1 required for increasing the mean cell count by 30% when compared to the cell count without the addition of Compound 1 was determined to be the minimum effective concentration. […]

With `O=c1nc(-c2ccccn2)sc2ccccc12` [Compound 1, 2-(2-Pyridyl)-4H-1,3-benzothiazin-4-one], the entries for the “Cell Death Inhibition Rate” value in assay [1] (0.1 μM) and in assay [1] (1 μM) were 44.7 ± 0.9 and 57.6 ± 7.0, respectively. The “inhibitory activity against cell death of human articular chondrocytes induced by NO” value in assay [1] (statement in words) was “has the inhibitory activity against the cell death of human articular chondrocytes induced by NO”. Also, the “minimum effective concentration required for inhibiting the cell death” value in assay [2] (concentration increasing mean cell count by 30% vs no compound, serum-free 4 days, mean ±SD, 3 runs) was 0.015 ± 0.011 µM. Moreover, the “myocardial cell death inhibitory activity” value in assay [2] (serum depletion, 4 days, WST-8 viable cell count) is reported as “exhibit the activity of inhibiting myocardial cell death”.

The values above are taken from patent publication US8173360B2, “Cell death inhibitor” (Takeda Pharmaceutical Company Limited, priority 2002, dated 2012).
